Here are results for 20 compounds from patent US10526347B2, “3-(3H-imidazo[4,5-B]pyridin-2-yl)-1H-pyrazolo[3,4-B]pyridine and therapeutic uses thereof” (Samumed, LLC, priority 2014, dated 2020).

The subject of the assay is Wnt activity (SW480 colon carcinoma cells stably expressing the Sp5-Luc reporter gene). The assay can be described thus: Sp5-Luc reporter gene screening assay for Wnt activity. The following applies: Homo sapiens. Type of assay: cell-based. From the text:
The screening assay for Wnt activity is described as follows. Reporter cell lines can be generated by stably transducing cancer cell lines (e.g., colon cancer) or primary cells (e.g., IEC-6 intestinal cells) with a lentiviral construct that includes a Wnt-responsive promoter driving expression of the firefly luciferase gene.
SW480 colon carcinoma cells were transduced with a lentiviral vector expressing luciferase with a human Sp5 promoter consisting of a sequence of eight TCF/LEF binding sites. SW480 cells stably expressing the Sp5-Luc reporter gene and a hygromycin resistance gene were selected by treatment with 150 μg/ml of hygromycin for 7 days. These stably transduced SW480 cells were expanded in cell culture and used for all further screening activities. For Sp5-Luc reporter gene assays, the cells were plated at 10,000 cells/well in 96-well plates with growth medium containing 10% fetal calf serum and incubated overnight at 37° C. and 5% CO2. Each compound was dissolved in DMSO as a 10 mM stock in standard j-vials and used to prepare compound source plates in dose-response format with 3-fold serial dilutions and a 10 mM top concentration. Compound transfer from serially diluted source plates to assay plates containing the cells was accomplished using a pintool (Multimek 96, Beckman equipped with V&P Scientific FP1S50H pins) based liquid handling protocol. This protocol used a slotted pin to transfer 50 nl of compound from a source plate well to an assay plate well containing 50 μl of cells in growth medium. […] Control wells received 50 nl of DMSO treatment for normalization and calculating IC50 values. The treated cells were incubated at 37° C. and 5% CO2 for an additional forty-two hours. Following incubation, the growth medium was removed and 50 μl of BrightGlo luminescence reagent (Promega) was added to each well of the 96-well assay plates. The plates were placed on an orbital shaker for 5 min and then luminescence was quantified on the Victor3 (Perkin Elmer) plate reader. Readings were normalized to DMSO only treated cells, and normalized activities were utilized for IC50 calculations using the dose-response log (inhibitor) vs. response -variable slope (four parameters) nonlinear regression feature available in GraphPad Prism 5.0 or 6.0.
In general terms: Reporter assays use an easily measured gene product as a stand-in for the process of interest.

Usually IC50 stands for the concentration that gives 50% inhibition. Low values mean higher potency, high ones lower potency. For `CN(C)c1cncc(-c2cnc3[nH]nc(-c4nc5c(-c6cccc(F)c6)ccnc5[nH]4)c3c2)c1` [Compound 5, 5-(3-(7-(3-Fluorophenyl)-3H-imidazo[4,5-b]pyridin-2-yl)-1H-pyrazolo [3,4-b]pyridin-5-yl)-N,N-dimethylpyridin-3-amine], the IC50 was found to be 172 nM.

Regarding `Fc1cccc(-c2ccnc3[nH]c(-c4n[nH]c5ncc(-c6cncc(CN7CCC(F)(F)C7)c6)cc45)nc23)c1` [Compound 21, 5-(5-((3,3-Difluoropyrrolidin-1-yl)methyl)pyridin-3-yl)-3-(7-(3-fluorophenyl)-3H-imidazo[4,5-b]pyridin-2-yl)-1H-pyrazolo[3,4-b]pyridine], it took 35.8 nM to reach half-maximal inhibition (IC50).

Consider `Fc1ccc(-c2ccnc3[nH]c(-c4n[nH]c5ncc(-c6cncnc6)cc45)nc23)cc1` [Compound 44, 3-(7-(4-Fluorophenyl)-3H-imidazo[4,5-b]pyridin-2-yl)-5-(pyrimidin-5-yl)-1H-pyrazolo[3,4-b]pyridine], for which half-maximal inhibition (IC50) required 377 nM.

In the case of `CC(C)(C)CC(=O)Nc1cncc(-c2cnc3[nH]nc(-c4nc5c(-c6ccccc6F)ccnc5[nH]4)c3c2)c1` [Compound 57, N-(5-(3-(7-(2-Fluorophenyl)-3H-imidazo[4,5-b]pyridin-2-yl)-1H-pyrazolo[3,4-b]pyridin-5-yl)pyridin-3-yl)-3,3-dimethylbutanamide], the IC50 was found to be 118 nM. Compared with the last compound, the IC50 is about 3.2-fold lower.

Regarding `CN1CCN(c2ccnc3[nH]c(-c4n[nH]c5ncc(-c6cncc(NC(=O)C7CCCC7)c6)cc45)nc23)CC1` [Compound 204, N-(5-(3-(7-(4-Methylpiperazin-1-yl)-3H-imidazo[4,5-b]pyridin-2-yl)-1H-pyrazolo[3,4-b]pyridin-5-yl)pyridin-3-yl)cyclopentanecarboxamide], the IC50 was determined as 312 nM.

Compound `CN1CCN(c2ccnc3[nH]c(-c4n[nH]c5ncc(-c6cncnc6)cc45)nc23)CC1` [Compound 209, 3-(7-(4-Methylpiperazin-1-yl)-3H-imidazo[4,5-b]pyridin-2-yl)-5-(pyrimidin-5-yl)-1H-pyrazolo[3,4-b]pyridine] showed an IC50 of over 10000 nM.

In the case of `CC(C)(C)CC(=O)Nc1cncc(-c2cnc3[nH]nc(-c4nc5cccnc5[nH]4)c3c2)c1` [Compound 222, N-(5-(3-(3H-Imidazo[4,5-b]pyridin-2-yl)-1H-pyrazolo[3,4-b]pyridin-5-yl)pyridin-3-yl)-3,3-dimethylbutanamide], the IC50 was determined as 192 nM.

For the compound `CCCCC(=O)Nc1cncc(-c2cnc3[nH]nc(-c4nc5c(-c6ccoc6)ccnc5[nH]4)c3c2)c1` [Compound 276, N-(5-(3-(7-(Furan-3-yl)-3H-imidazo[4,5-b]pyridin-2-yl)-1H-pyrazolo [3,4-b]pyridin-5-yl)pyridin-3-yl)pentanamide], the IC50 is 8.1 nM.

`CN(C)c1cncc(-c2cnc3[nH]nc(-c4nc5c(-c6cccs6)ccnc5[nH]4)c3c2)c1` [Compound 291, N,N-Dimethyl-5-(3-(7-(thiophen-2-yl)-3H-imidazo[4,5-b]pyridin-2-yl)-1H-pyrazolo[3,4-b]pyridin-5-yl)pyridin-3-amine] gave an IC50 of 43.8 nM. Compared with the last compound, the IC50 is about 5.4-fold higher.

For the compound `FC1(F)CCN(Cc2cncc(-c3cnc4[nH]nc(-c5nc6c(-c7cccs7)ccnc6[nH]5)c4c3)c2)C1` [Compound 309, 5-(5-((3,3-Difluoropyrrolidin-1-yl)methyl)pyridin-3-yl)-3-(7-(thiophen-2-yl)-3H-imidazo[4,5-b]pyridin-2-yl)-1H-pyrazolo[3,4-b]pyridine], the IC50 was found to be 38 nM. This IC50 and that of the compound before are within 1.5-fold of each other.

Consider `NC1CN(c2cncc(-c3cnc4[nH]nc(-c5nc6c(-c7cccc(F)c7)ccnc6[nH]5)c4c3)n2)C1` [Compound 914, 1-(6-(3-(7-(3-Fluorophenyl)-3H-imidazo[4,5-b]pyridin-2-yl)-1H-pyrazolo [3,4-b]pyridin-5-yl)pyrazin-2-yl)azetidin-3-amine], for which the IC50 was 1020 nM.

Compound `Fc1cccc(-c2ccnc3[nH]c(-c4n[nH]c5ncc(-c6cncc(OC7CCCCC7)c6)cc45)nc23)c1` [Compound 915, 5-(5-(Cyclohexyloxy)pyridin-3-yl)-3-(7-(3-fluorophenyl)-3H-imidazo[4,5-b]pyridin-2-yl)-1H-pyrazolo[3,4-b]pyridine] yielded an IC50 of over 10000 nM.

Compound `O=C(CC1CCNCC1)Nc1cncc(-c2cnc3[nH]nc(-c4nc5c(-c6cccc(F)c6)ccnc5[nH]4)c3c2)c1` [Compound 917, N-(5-(3-(7-(3-Fluorophenyl)-3H-imidazo[4,5-b]pyridin-2-yl)-1H-pyrazolo [3,4-b]pyridin-5-yl)pyridin-3-yl)-2-(piperidin-4-yl)acetamide] showed a 50% inhibitory concentration (IC50) of over 10000 nM.

With `Fc1cccc(-c2ccnc3[nH]c(-c4n[nH]c5ncc(-c6cncc(OCCN7CCCC7)c6)cc45)nc23)c1` [Compound 918, 3-(7-(3-Fluorophenyl)-3H-imidazo[4,5-b]pyridin-2-yl)-5-(5-(2-(pyrrolidin-1-yl)ethoxy)pyridin-3-yl)-1H-pyrazolo[3,4-b]pyridine], the IC50 is over 10000 nM.

In turn, `Fc1cccc(-c2ccnc3[nH]c(-c4n[nH]c5ncc(-c6cncc(OCc7ccccc7)c6)cc45)nc23)c1` [Compound 922, 5-(5-(Benzyloxy)pyridin-3-yl)-3-(7-(3-fluorophenyl)-3H-imidazo[4,5-b]pyridin-2-yl)-1H-pyrazolo[3,4-b]pyridine] came in with a half-inhibitory concentration (IC50) of over 10000 nM.

Compound `O=C(CC1CCCCC1)Nc1cncc(-c2cnc3[nH]nc(-c4nc5c(-c6cccc(F)c6)ccnc5[nH]4)c3c2)c1` [Compound 923, 2-Cyclohexyl-N-(5-(3-(7-(3-fluorophenyl)-3H-imidazo[4,5-b]pyridin-2-yl)-1H-pyrazolo[3,4-b]pyridin-5-yl)pyridin-3-yl)acetamide] gave an IC50 of over 10000 nM.

On to `CC(C)CC(=O)Nc1cncc(-c2cnc3[nH]nc(-c4nc5c(-c6cc(F)cc(OCCN(C)C)c6)ccnc5[nH]4)c3c2)c1` [Compound 1234, N-(5-(3-(7-(3-(2-(Dimethylamino)ethoxy)-5-fluorophenyl)-3H-imidazo[4,5-b]pyridin-2-yl)-1H-pyrazolo[3,4-b]pyridin-5-yl)pyridin-3-yl)-3-methylbutanamide], for which inhibition was half-maximal at 1130 nM (IC50).

Compound `CC(C)CC(=O)Nc1cncc(-c2cnc3[nH]nc(-c4nc5c(-c6cc(F)cc(OCCN7CCCC7)c6)ccnc5[nH]4)c3c2)c1` [Compound 1278, N-(5-(3-(7-(3-Fluoro-5-(2-(pyrrolidin-1-yl)ethoxy)phenyl)-3H-imidazo[4,5-b]pyridin-2-yl)-1H-pyrazolo[3,4-b]pyridin-5-yl)pyridin-3-yl)-3-methylbutanamide] returned an IC50 of 890 nM.

As for `CC(C)CC(=O)Nc1cncc(-c2cnc3[nH]nc(-c4nc5c(-c6cc(O)cc(F)c6)ccnc5[nH]4)c3c2)c1` [Compound 1322, N-(5-(3-(7-(3-Fluoro-5-hydroxyphenyl)-3H-imidazo[4,5-b]pyridin-2-yl)-1H-pyrazolo[3,4-b]pyridin-5-yl)pyridin-3-yl)-3-methylbutanamide], the IC50 was determined as 395 nM.

`COc1cc(F)cc(-c2ccnc3[nH]c(-c4n[nH]c5ncc(-c6cncc(NC(=O)CC(C)C)c6)cc45)nc23)c1` [Compound 1366, N-(5-(3-(7-(3-Fluoro-5-methoxyphenyl)-3H-imidazo[4,5-b]pyridin-2-yl)-1H-pyrazolo[3,4-b]pyridin-5-yl)pyridin-3-yl)-3-methylbutanamide] displayed an IC50 of 125 nM.
